According to patent publication US20220133872A1, “A MONOPHOSPHORYL LIPID-A LIPOSOME BASED CANCER VACCINE” (University of Florida Research Foundation, Inc., priority 2019, published 2022):
“Also recorded” adds a separate entry of the source.

System: NKT cells
Experiment: NKT cells in blood, spleen and liver of vaccinated C57BL/6 mice (flow cytometry)
Type: in vivo
Details: vs untreated mice
Procedure: B16-F10 mouse melanoma cell line in C57/BL6 mice provides a syngeneic model of spontaneous highly metastatic tumor. As shown in the diagram of FIG. 13, three groups of mice were injected with B16 melanoma cell lines. Only one group received the GD3 based vaccine, the other groups were a control group and α-galactosylceramide (α-GalCer), a potent and specific activator of mouse and human iNKT cells. These C57BL/6 mice were vaccinated weekly for 4 weeks followed by a week of rest (see FIG. 13). Mice where then euthanized to collect, blood, liver, and spleen for evaluation of NKT cells. Liver lymphocytes were collected by making mono-cellular suspension of liver obtained after enzymatic digestion. Collected lymphocytes were stained for CD3, CD4, TCRβ, NK1.1, CD49b and dead cells. In these experiments untreated and α-galactosylceramide (α-GalCer) treated mice were used as controls. Tumor size and mass was only recorded.
One week post last vaccination, mice were euthanized as per IACUC protocol and Natural Killer T cells were evaluated in blood, spleen, and liver by staining the isolated cells with anti-CD45, CD3, CD4, TCRb, CD49b and NK1.1 antibodies. The stained cells were analyzed on BD Fortessa and FlowJo 10 v.

## CCCCCCCCCCCCCCCCCCCCCCCCCC(=O)N[C@@H](CO[C@H]1O[C@H](CO)[C@H](O)[C@H](O)[C@H]1O)[C@H](O)[C@H](O)CCCCCCCCCCCCCC [α-GalCer, α-galactosylceramide]
liver, weekly x4, one week after last vaccination
  NKT cells in the liver: increased; also recorded: accumulation
Spleen and blood
  NKT cells in spleen and blood: no discernable differences
